Measured values reported in patent US5691307A, “O^6 -substituted guanine compositions and methods for depleting O^6” (The United States of America as represented by the …, priority 1994, dated 1997).
Read-outs that look alike come from different tables or passages of the source.

Tests used:
[1] = test system: AGT; test: AGT depletion (general statements)
[2] = background; agents under development; cited from earlier work
[3] = test system: prostate tumors; conditions: rats bearing prostate tumors; O^6-benzylguanine one hour prior to BCNU, or BCNU alone at equal dose; cited from earlier work
[4] = target: T1, alkyltransferase (AGT), HT29 cell-free extract (Homo sapiens, UniProt P16455); test: biochemical
T1 sequence (P16455 1-207): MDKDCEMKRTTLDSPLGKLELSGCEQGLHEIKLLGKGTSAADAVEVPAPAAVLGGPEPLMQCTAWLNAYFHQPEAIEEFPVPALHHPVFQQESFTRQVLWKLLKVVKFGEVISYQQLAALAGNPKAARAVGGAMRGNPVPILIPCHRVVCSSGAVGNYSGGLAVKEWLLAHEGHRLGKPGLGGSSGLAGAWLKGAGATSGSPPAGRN

[5] = target: T2, alkyltransferase (AGT), HT29 cells (Homo sapiens, UniProt P16455); test: AGT depletion/inactivation in intact HT29 cells; assay type: cell-based
T2 construct: human colon tumor cells HT29 and intact HT29 cells; endogenous in cells; host or cells: HT29 human colon tumor cells, intact
T2 sequence (P16455 1-207): T1 sequence (P16455 1-207)
Experimental: After four hours, cells were harvested and frozen at -80° C. until analysis for AGT.

[6] = Conversion to O^6-benzylguanine / stability in vitro and in cell cultures; assay type: in vitro ADME
[7] = Stability in alkaline solution (UV at pH 13); assay type: physicochemical; conditions: pH 13, UV measurement
Experimental: The reaction mixture was stirred at 0° C. for 30 min at which time the ice bath was removed and the reaction was allowed to proceed overnight at room temperature. At this point, a water-ice mixture (~5 ml) was added to the flask with vigorous stirring for 5 minutes.

[8] = test system: AGT; conditions: cited from earlier work; for AGT depletion (shown previously): literature
[9] = test system: tumor cells; conditions: cited from earlier work
[10] = test system: pancreatic tumors; conditions: background; cited from earlier work
[11] = test system: pancreatic beta cells; conditions: cited from earlier work
[12] = test system: malignant melanomas, brain tumors and mycosis fungoides; conditions: background; cited from earlier work
[13] = test system: active melanin producing cells such as melanoma cells; conditions: cited from earlier work
[14] = HT29 cell-free extract, 30 min incubation, 50% inactivation (Table 2), read-out: ED50 In cell-free extract
[15] = HT29 cells, 4 h incubation, 50% inactivation (Table 2), read-out: ED50 In cells

For Nc1nc(OCc2ccccc2)c2ncn(CC(=O)[O-])c2n1.[Na+], the AGT depletion characteristics [1] was “exhibit AGT depletion characteristics”.
For O=NN(CCCl)C(=O)NCCO [1-(2-chloroethyl)-3-(2-hydroxyethyl)-1-nitrosourea], the side effects [2] is listed as “fewer side effects”.
For O=NN(CCCl)C(=O)NCCCl [BCNU, 1,3-bis(2-chloroethyl)-1-nitrosourea], the “regression in tumor growth” value [3] is listed as “not observed”.
For CS(=O)(=O)CS(=O)(=O)OCCCl [Clomesone, 2-chloroethylmethylsulfonylmethanesulfonate], the side effects [2] is listed as “fewer side effects”.
For CCOC(=O)Cn1cnc2c(OCc3ccccc3)nc(N)nc21 [Example 3b, 2-Amino-6-benzyloxy-9-carboethoxymethylpurine], the IC50 [4, 14] was 30 µM, the IC50 [5, 15] was 3 µM and the AGT depletion characteristics [1] was “exhibit AGT depletion characteristics”.
In the case of NC(=O)Cn1cnc2c(OCc3ccccc3)nc(N)nc21 [Example 4b, 2-Amino-6-benzyloxy-9-carbamoylmethylpurine], the AGT depletion characteristics [1] is reported as “exhibit AGT depletion characteristics”.
In the case of CCC(O)Cn1cnc2c(OCc3ccccc3)nc(N)nc21 (stereo not shown) [Example 5b, 2-Amino-6-benzyloxy-9-(2-hydroxybutyl)purine], the AGT depletion characteristics [1] is reported as “exhibit AGT depletion characteristics”.
For N#CCn1cnc2c(OCc3ccccc3)nc(N)nc21 [Example 6b, 2-Amino-6-benzyloxy-9-cyanomethylpurine], the AGT depletion characteristics [1] was “exhibit AGT depletion characteristics”.
With CC(C)(C)C(=O)OCn1cnc2c(OCc3ccccc3)nc(N)nc21 [Example 7, 2-Amino-6-benzyloxy-9-pivaloyloxymethylpurine] the “conversion by esterases in cell cultures” value ([6]; cell cultures) was “Converted to O^6benzylguanine by esterases in cell cultures” and the stability in vitro ([6]; in vitro) was “stable in vitro”.
In the case of CC(=O)OC[C@H]1OC(OC(C)=O)[C@H](NC(=O)Cn2cnc3c(OCc4ccccc4)nc(N)nc32)[C@@H](OC(C)=O)[C@@H]1OC(C)=O (stereo partly drawn) [Example 8, 2-Amino-6-benzyloxy-9-{N-[2-deoxy-2-(1,3,4,6-tetra-O-acetyl)-D-glucopyranosyl]carbamoylmethyl}purine], the AGT depletion characteristics [1] is reported as “exhibit AGT depletion characteristics”.
For CC(=O)n1cnc2c(OCc3ccccc3)nc(N)nc21 [Example 13, 9-Acetyl-O^6-benzylguanine], the “decomposition at pH 13” value [7] was “decomposes to O^6 -benzylguanine” and the conversion by hydrolysis ([6]; in vitro and in cultures) was “Converted to O^6benzylguanine by hydrolysis”.
For C[C@]12CC[C@H]3[C@@H](CCC4=CC(=O)CC[C@@]43C)[C@@H]1CC[C@@H]2OC(=O)Cn1cnc2c(OCc3ccccc3)nc(N)nc21 [Example 20, O^6 -Benzyl-9-(4-androsten-3-one-17β-oxycarbonylmethyl) guanine], the IC50 [4] was 5 µM and the IC50 [5] was 0.5 µM.
Compound C[C@]12CCC(=O)C[C@@H]1CC[C@@H]1[C@@H]2CC[C@]2(C)[C@@H](OC(=O)Cn3cnc4c(OCc5ccccc5)nc(N)nc43)CC[C@@H]12 [Example 22, O^6 -Benzyl-9-(5α-androstan-3-one-17β-oxycarbonylmethyl) guanine] has an IC50 [4] of 4 µM and an IC50 [5] of 0.5 µM.
In the case of CCOP(=O)(OCC)C(C)NC(=O)N(CCCl)N=O (stereo not shown) [Fotemustine, 1-[N-(2-chloroethyl)-N-nitrosoureido]ethylphosphonic acid diethyl ester], the side effects [2] is listed as “fewer side effects”.
For Nc1nc(OCc2ccc(Cl)cc2)c2nc[nH]c2n1 [O^6 -(p-chlorobenzyl)guanine, O^6 -(p-chlorobenzyl) guanine], the IC50 [4, 14] is given as 0.2 µM, the IC50 [5, 15] is given as 0.08 µM and the “potency as AGT depleter” value [8] is given as “more potent”. The “AGT depletion (shown previously)” value [8] was “effective in depleting AGT” and the “enhancement in the cytotoxic response to alkylating agents” value (from here on “enhancement in the cytotoxic response”) [9] was “enhancement in the cytotoxic response to chemotherapeutic alkylating agents”.
For Nc1nc(OCc2ccc(Cl)cc2)c2ncn([C@@H]3O[C@H](CO)[C@@H](O)[C@H]3O)c2n1 [O^6 -(p-chlorobenzyl)guanosine], the IC50 [4, 14] is listed as 10 µM, the IC50 [5, 15] is listed as 5 µM and the “AGT depletion (shown previously)” value [8] is listed as “effective in depleting AGT”.
In the case of Nc1nc(OCc2ccc(F)cc2)c2nc[nH]c2n1 [O^6 -(p-fluorobenzyl)guanine, O^6 -(p-fluorobenzyl) guanine], the IC50 [4, 14] is given as 0.2 µM and the “AGT depletion (shown previously)” value [8] is given as “effective in depleting AGT”.
In the case of Cc1ccc(COc2nc(N)nc3nc[nH]c23)cc1 [O^6 -(p-methylbenzyl)guanine], the IC50 [4, 14] is listed as 0.2 µM, the IC50 [5, 15] is listed as 0.08 µM and the “potency as AGT depleter” value [8] is listed as “more potent”. The “AGT depletion (shown previously)” value [8] was “effective in depleting AGT” and the “enhancement in the cytotoxic response” value [9] was “enhancement in the cytotoxic response to chemotherapeutic alkylating agents”.
In the case of Cc1ccc(COc2nc(N)nc3c2ncn3[C@@H]2O[C@H](CO)[C@@H](O)[C@H]2O)cc1 [O^6 -(p-methylbenzyl)guanosine, O^6 - (p-methylbenzyl)guanosine], the IC50 [4, 14] is given as 9 µM, the IC50 [5, 15] is given as 3 µM and the “AGT depletion (shown previously)” value [8] is given as “effective in depleting AGT”.
For C=CCOc1nc(N)nc2nc[nH]c12 [O^6 -allylguanine, O^6 -Allylguanine], the IC50 [4] was 20 µM and the IC50 [5] was 4 µM.
In the case of Nc1nc(OCc2ccccc2)c2ncn([C@@H]3O[C@H](CO)[C@@H](O)[C@H]3O)c2n1 [O^6 -benzylguanosine], the IC50 [4, 14] is given as 11 µM, the IC50 [5, 15] is given as 2 µM and the “AGT depletion (shown previously)” value [8] is given as “effective in depleting AGT”.
In the case of COc1nc(N)nc2nc[nH]c12 [O^6 -methylguanine], the IC50 [4, 14] is given as 350 µM, the IC50 [5, 15] is given as 120 µM and the “potency as AGT depleter” value [8] is given as “weak”. The “enhancement in the cytotoxic response” value [9] was “enhancement in the cytotoxic response to chemotherapeutic alkylating agents”.
In the case of Nc1nc(OCc2ccccc2)c2ncn([C@H]3C[C@H](O)[C@@H](CO)O3)c2n1 [O^6-benzyl-2'-deoxyguanosine], the IC50 [4, 14] is listed as 2 µM, the IC50 [5, 15] is listed as 0.5 µM and the “AGT depletion (shown previously)” value [8] is listed as “effective in depleting AGT”.
For CN(N=O)C(=O)N[C@H]1C(O)O[C@H](CO)[C@@H](O)[C@@H]1O (stereo partly drawn) [Streptozotocin, 2-deoxy-2-(3-methyl-3-nitrosoureido)-D-glucopyranose], the “effectiveness against pancreatic tumors” value [10] is given as “effective” and the “selective destruction of pancreatic beta cells” value [11] is given as “selectively destructive to pancreatic beta cells”.
For Cn1nnc2c(C(N)=O)ncn2c1=O [Temozolomide, 8-carbamoyl-3-methylimidazo[5,1-d]-1,2,3,5-tetrazin-4-(3H)-one], the “activity against malignant melanomas, brain tumors and mycosis fungoides” value [12] is listed as “active”.
For O=c1cc[nH]c(=S)[nH]1 [Thiouracil], the “accumulation in active melanin producing cells” value [13] is given as “accumulates readily in active melanin producing cells such as melanoma cells”.
For Nc1nc(OCc2ccccc2)c2ncn(CC(=O)[O-])c2n1.[Na+] [sodium salt], the IC50 [4, 14] was 157 µM.
